Source: ChEMBL document CHEMBL5375968, “Peptide TK-HR from the Skin of Chinese Folk Medicine Frog Hoplobatrachus Rugulosus Accelerates Wound Healing via the Activation of the Neurokinin-1 Receptor” (J Med Chem, 2023)
Activity calls are given as the source filed them. The calls are words filed in the database; no cut-off is given here.

Tests used:
[1] = Induction of wound healing in BALB/c mouse model of full-thickness wounds assessed as recruitment of M1-type macrophages in wound skin at 50 ug/ml, TOP bid measured after 4 days by flow cytometry (reference value: 85.3 %); format: functional; conditions: dose 50 µg/ml, time 4 day
[2] = Induction of wound healing in BALB/c mouse model of full-thickness wounds at 50 ug/ml, TOP bid pretreated with Aprepitant for 2 hrs followed by compound administration measured after 6 days (reference value: 69.3 %); format: functional; conditions: dose 50 µg/ml, time 6 day
HUVEC [3] = experiment: Angiogenic activity in Aprepitant-treated HUVEC cells assessed as increase in tube formation at 20 uM measured for 4 hrs by microscopic analysis; format: functional, cell-based; conditions: Homo sapiens
RAW264.7 [4] = experiment: Induction of phagocytosis in mouse RAW264.7 cells cultured with Escherichia coli ATCC 25922 assessed as number of engulfed bacteria at 20 uM incubated for 24 hrs followed by bacterial exposure measured after 1 hr by plate counting method (reference value: 225); format: functional; conditions: time 25 hrs
[5] = Induction of wound healing in BALB/c mouse model of full-thickness wounds at 100 ug/ml, TOP bid measured after 6 days (reference value: 71.7 %); format: functional; conditions: dose 100 µg/ml, time 6 day
[6] = Toxicity in BALB/c mouse model of full-thickness wounds assessed as animal death at 50 to 200 ug/ml, TOP bid measured upto 8 days; conditions: in vivo, topical_or_ocular, 192 h, dose 50-200 µg/ml, time < 8 day
[7] = Induction of wound healing in BALB/c mouse model of full-thickness wounds at 200 ug/ml, TOP bid measured after 6 days (reference value: 71.7 %); format: functional; conditions: dose 200 µg/ml, time 6 day
RAW264.7 [8] = experiment: Induction of phagocytosis in mouse RAW264.7 cells assessed as increase in neutral red dye uptake by measuring optical density at 540 nm at 20 uM incubated for 24 hrs followed by dye addition measured after 4 hrs by absorbance based assay (reference value: 0.073); format: functional; conditions: time 28 hrs
RAW264.7 [9] = experiment: Induction of IL-1beta expression in mouse RAW264.7 cells incubated for 24 hrs by ELISA; format: functional, cell-based; conditions: dose 2.5-20 µM
[10] = Toxicity in BALB/c mouse model of full-thickness wounds assessed as inflammatory foci in liver at 200 ug/ml, TOP bid measured upto 8 days by H and E staining based analysis; format: tissue-based; conditions: in vivo, topical_or_ocular, 192 h, dose 200 µg/ml, time < 8 day
HUVEC [11] = experiment: Angiogenic activity in HUVEC cells assessed as increase in tube formation at 5 uM measured for 4 hrs by microscopic analysis relative to control; format: functional, Homo sapiens
HUVEC [12] = experiment: Induction of cell migration in HUVEC cells assessed as healing rate at 20 uM measured after 24 hrs by scratch healing assay (reference value: 30.2 %); format: functional, Homo sapiens
HaCaT [13] = experiment: Induction of cell migration in Aprepitant-treated human HaCaT cells assessed as healing rate at 20 uM measured after 24 hrs by scratch healing assay (reference value: 36.8 %); format: functional
HaCaT [14] = experiment: Induction of cell migration in human HaCaT cells assessed as healing rate at 20 uM measured after 48 hrs by scratch healing assay (reference value: 63.1 %); format: functional
Mus musculus [15] = species on record: Mus musculus; experiment: Induction of wound healing in BALB/c mouse model of full-thickness wounds assessed as increase in TGF-1beta production in wound skin at 50 to 200 ug/ml, TOP bid measured after 8 days by ELISA; format: functional; conditions: dose 50-200 µg/ml, time 8.0 day
Neutrophil = experiment: Induction of wound healing in BALB/c mouse model of full-thickness wounds assessed as increase in number of neutrophil infiltration in wound skin at 50 ug/ml, TOP bid measured after 2 days by IHC analysis; format: functional, cell-based; conditions: dose 50.0 µg/ml, time 2.0 day
[16] = Toxicity in BALB/c mouse model of full-thickness wounds assessed as adverse effect on body weight at 50 to 200 ug/ml, TOP bid measured upto 8 days; conditions: in vivo, topical_or_ocular, 192 h, dose 50-200 µg/ml, time < 8 day
HUVEC [17] = experiment: Induction of cell migration in HUVEC cells assessed as formation of filopodia extensions at 20 uM measured after 24 hrs by immunofluorescence microscopy; format: functional, cell-based; conditions: Homo sapiens
Mast cell = experiment: Inhibition of degranulation in mast cells (unknown origin) assessed as beta- hexosaminidase release upto 40 uM; format: functional, cell-based
Splenic fibroblast = experiment: Effect on TGF-1beta production in human […] fibroblasts at 5 to 40 uM incubated for 24 hrs by ELISA; format: functional, cell-based; conditions: dose 5-40 µM
HUVEC [18] = experiment: Induction of cell migration in Aprepitant-treated HUVEC cells assessed as healing rate at 20 uM measured after 48 hrs by scratch healing assay (reference value: 57.2 %); format: functional, Homo sapiens
RAW264.7 [19] = experiment: Induction of MCP-1 expression in mouse RAW264.7 cells incubated for 24 hrs by ELISA; format: functional, cell-based; conditions: dose 2.5-20 µM
Mus musculus [20] = species on record: Mus musculus; experiment: Induction of wound healing in BALB/c mouse model of full-thickness wounds assessed as increase in recruitment of M2-type macrophages in wound skin at 50 ug/ml, TOP bid measured after 4 days by IHC analysis; format: functional; conditions: dose 50.0 µg/ml, time 4.0 day
[21] = Toxicity in BALB/c mouse model of full-thickness wounds assessed as adverse effect in behaviour at 50 to 200 ug/ml, TOP bid measured upto 8 days; conditions: in vivo, topical_or_ocular, 192 h, dose 50-200 µg/ml, time < 8 day
[22] = Induction of wound healing in BALB/c mouse model of full-thickness wounds at 200 ug/ml, TOP bid measured after 8 days (reference value: 81.0 %); format: functional; conditions: dose 200 µg/ml, time 8 day
Mus musculus [23] = species on record: Mus musculus; experiment: (§1) Induction of wound healing in BALB/c mouse model of full-thickness wounds assessed as recruitment of M1-type macrophages in wound skin at 50 ug/ml, TOP bid measured after 2 days by flow cytometry (reference value: 60.9 %); format: functional; conditions: dose 50.0 µg/ml, time 2.0 day
[24] = as §1; format: functional; conditions: dose 50 µg/ml, time 2 day
Aorta = experiment: Ex vivo angiogenic activity in Aprepitant-treated C57BL/6 mouse aortic ring assessed as sprouting by measuring vessel outgrowth area at 20 uM measured for 7 days by microscopic analysis (reference value: 117.3 %); format: functional; conditions: time 7 day
HUVEC [25] = experiment: Induction of cell migration in HUVEC cells assessed as formation of cytoplasmic protrusions at 20 uM measured after 24 hrs by immunofluorescence microscopy; format: functional, cell-based; conditions: Homo sapiens
[26] = Induction of wound healing in BALB/c mouse model of full-thickness wounds assessed as alpha-SMA level below wound surface at 50 to 200 ug/ml, TOP bid measured after 8 days by IHC analysis (reference value: 16.4 %); format: functional; conditions: dose 50-200 µg/ml, time 8 day, at 50 to 200 µg/mL
[27] = Induction of wound healing in BALB/c mouse model of full-thickness wounds at 100 ug/ml, TOP bid measured after 4 days (reference value: 48.6 %); format: functional; conditions: dose 100 µg/ml, time 4 day
RAW264.7 [28] = experiment: Induction of phagocytosis in mouse RAW264.7 cells cultured with Escherichia coli ATCC 25922 assessed as number of surviving engulfed bacteria at 20 uM incubated for 24 hrs followed by bacterial exposure for 1 hr and further treated with gentamycin for 2 hrs by plate counting method (reference value: 37); format: functional
RAW264.7 [29] = experiment: Induction of TNF-alpha expression in mouse RAW264.7 cells incubated for 24 hrs by ELISA; format: functional, cell-based; conditions: dose 2.5-20 µM

H-KPNPDRFYGLM-NH2
Activity [1]: 69.9%
Activity [2]: 69.4%
Activity (HUVEC [3]): inactive
Activity (RAW264.7 [4]): 350
Activity [5]: 93.9%
Activity [6]: Non-Toxic
Activity [7]: 100%
OD (RAW264.7 [8]): 0.109
Activity (RAW264.7 [9]): Dose-Dependent Effect
Activity [10]: Non-Toxic
Activity (HUVEC [11]): 85.3%
Activity (HUVEC [12]): 46.7%
Activity (HaCaT [13]): 41.7%
Activity (HaCaT [14]): 92.8%
Activity (Mus musculus [15]): inactive
Activity (Neutrophil): Active
Activity [16]: Non-Toxic
Activity (HUVEC [17]): Active
inhibition (Mast cell): Active
Activity (Splenic fibroblast): inactive
Activity (HUVEC [18]): 65%
Activity (RAW264.7 [19]): Dose-Dependent Effect
Activity (Mus musculus [20]): Active
Activity [21]: Non-Toxic
Activity [22]: 100%
Activity (Mus musculus [23]): Active
Activity [24]: 79.2%
Activity (Aorta): 40%
Activity (HUVEC [25]): Active
Activity [26]: 40.4%
Activity [27]: 70.9%
Activity (RAW264.7 [28]): 20
Activity (RAW264.7 [29]): Dose-Dependent Effect
